Data reported in paper PMC7387440, “EGCG impedes human Tau aggregation and interacts with Tau” (Scientific Reports, 2020).
pKd: −log10 of the molar value.

Molecular target: T1, full-length Tau (human Tau40wt) (Homo sapiens, UniProt P10636)
T1 construct: gene MAPT; full-length recombinant Tau (Tau40wt, 441 residues)
Assay: isothermal titration calorimetry ([…] Tau titrated with […] EGCG)
Format: binding

T1 sequence (P10636 1-441 isoform P10636-8): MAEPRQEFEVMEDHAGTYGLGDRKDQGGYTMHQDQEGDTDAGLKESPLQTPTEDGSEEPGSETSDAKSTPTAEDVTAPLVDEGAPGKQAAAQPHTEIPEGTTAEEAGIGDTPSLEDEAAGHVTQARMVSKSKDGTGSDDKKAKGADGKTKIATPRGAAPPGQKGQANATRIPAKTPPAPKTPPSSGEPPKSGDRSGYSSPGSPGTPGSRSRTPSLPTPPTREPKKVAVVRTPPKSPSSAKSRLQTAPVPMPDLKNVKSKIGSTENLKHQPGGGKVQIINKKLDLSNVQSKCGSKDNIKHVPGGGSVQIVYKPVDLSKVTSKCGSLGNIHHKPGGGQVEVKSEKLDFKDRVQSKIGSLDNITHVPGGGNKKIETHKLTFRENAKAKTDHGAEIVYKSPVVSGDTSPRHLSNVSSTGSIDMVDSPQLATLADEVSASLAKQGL

Compound O=C(O[C@@H]1Cc2c(O)cc(O)cc2O[C@@H]1c1cc(O)c(O)c(O)c1)c1cc(O)c(O)c(O)c1 [EGCG] has a pKd of 7.13.
